Assay results published in US20140329854A1, “NOVEL HETEROCYCLIC COMPOUNDS USEFUL IN SIRTUIN BINDING AND MODULATION” (SMB Innovation, priority 2011, published 2014).
Converted amounts (≈) assume the structure as drawn.

Legend:
[1] = test system: CYP1A2, CYP2C9, CYP2C19, CYP2D6, CYP3A4; assay: CYP inhibition in human liver microsomes
[2] = Measured partition coefficients (MlogD7.4, logP11); type: physicochemical
Description: Physical properties tPSA and ClogP (calculated lipophilicity octanol/water) were calculated using ChemDraw. Additionally, M log D7.4 (measured partition coefficient at pH 7.4) and log P11 (measured partition coefficient at pH 11) were measured, and all data are shown in Table 7.

[3] = test system: human and rat hepatocytes; assay: Stability in cryopreserved hepatocytes (FIG. 7), verbal summary; type: in vitro ADME; details: 90 minutes
Description: (§1) Stability of the six compounds in the presence of a drug metabolizing system such as human and rat hepatocytes was measured. Data were reported from the CRO in the format of hepatic intrinsic clearance (CLint) in mL/min/kg. These CLint data were converted using the well-stirred equation

human hepatocytes = assay: Metabolic stability in human hepatocytes; type: in vitro ADME; details: human Qh = 21 mL/min/kg
Description: as §1
(§2) to a whole body clearance (CLh, hepatic clearance), which is more directly physiologically interpreted (Qh, hepatic blood flow rate, mL/min/kg).

[4] = Metabolic stability in human hepatocytes; type: in vitro ADME; details: human hepatocytes, hepatic intrinsic clearance; read-out: hu CLint
Description: as §1, §2

[5] = Kinetic aqueous solubility; type: physicochemical; details: phosphate buffer, pH 7.4, aqueous buffer, kinetic from dmso stock; read-out: Measured kinetic solubility
rat hepatocytes = assay: Metabolic stability in rat hepatocytes; type: in vitro ADME; details: rat Qh = 55 mL/min/kg
Description: as §1, §2

[6] = Metabolic stability in rat hepatocytes; type: in vitro ADME; details: rat hepatocytes, hepatic intrinsic clearance
Description: as §1, §2

[7] = Solubility in DMSO stock solution; details: solubility in DMSO before further dilution with water to 1% DMSO
SIRT1 = target: T1, SIRT1 (Homo sapiens, UniProt Q96EB6); assay: CISBIO HTRF SIRT1 assay of SIRT1 peptide deacetylation, modified by excluding NAD+; type: biochemical; details: average AC50 values, n = 6; read-out: AC50
T1 construct: purchased Cisbio Bioassays
T1 sequence (Q96EB6 1-747): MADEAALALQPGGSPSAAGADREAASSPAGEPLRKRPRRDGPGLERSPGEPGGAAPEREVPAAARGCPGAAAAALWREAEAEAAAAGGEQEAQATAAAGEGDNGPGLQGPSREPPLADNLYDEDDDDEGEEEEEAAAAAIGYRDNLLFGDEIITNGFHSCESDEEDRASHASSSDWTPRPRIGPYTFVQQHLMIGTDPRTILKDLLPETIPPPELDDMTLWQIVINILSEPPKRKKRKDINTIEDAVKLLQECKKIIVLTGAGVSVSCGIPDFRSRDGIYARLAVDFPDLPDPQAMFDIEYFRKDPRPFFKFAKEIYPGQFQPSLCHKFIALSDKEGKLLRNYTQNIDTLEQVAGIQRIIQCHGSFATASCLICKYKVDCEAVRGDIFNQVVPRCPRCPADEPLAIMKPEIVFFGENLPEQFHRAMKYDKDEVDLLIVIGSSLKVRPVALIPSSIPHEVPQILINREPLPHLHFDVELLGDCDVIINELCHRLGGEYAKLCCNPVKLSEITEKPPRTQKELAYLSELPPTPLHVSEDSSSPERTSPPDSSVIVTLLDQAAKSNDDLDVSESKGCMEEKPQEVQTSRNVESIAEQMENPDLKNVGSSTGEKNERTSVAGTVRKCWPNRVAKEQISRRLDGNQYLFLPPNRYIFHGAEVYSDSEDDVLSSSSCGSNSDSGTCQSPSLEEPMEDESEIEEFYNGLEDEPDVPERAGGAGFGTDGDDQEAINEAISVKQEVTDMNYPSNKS
Description: Generally, the CISBIO HTRF® fluorescence enzyme titration assay (Cisbio Bioassays, Cisbio, 135 South Road, Bedford, Mass. 01730, USA) has provided information on inhibition and/or activation of SIRT1 deacetylation of a substrate peptide d2 containing a single acetylated lysine residue and a fluorescence probe/quencher. IC50 and AC50 values have been obtained. The assay was performed in microtiter wells and involved an enzymatic step, wherein 2 μL of the substrate peptide (6 nM) is incubated with 2 μL of SIRT1 enzyme (2.5 ng) and 2 μL of compound solution in DMSO and water. Reaction with anti-acetyl cryptate produces a FRET signal giving maximum signal when no SIRT1 reaction can be detected. The detection step involves quantification of the deacetylation process using an anti-acetyl MAb labeled with Eu^3+ cryptate. The assay was modified by excluding the NAD+ cofactor and using nicotinamide as inhibition control and the compound SRT1720 as activation control. SRT 1720 is described as a SIRT1 activating compound in Pillarisetti, S. (2008).
Protocol for inhibition/activation assay:
After adding all enzymatic step ingredients the mixture is incubated at room temperature at 30 to 60 min. Then the detection reactant is added and incubated at room temperature for 5 hours and on to produce a signal. The fluorescence readout is given as percentage of signal produced with no enzyme reaction.
The cryptate is excited at 337 nm and the fluorescence is measured at 590 nm (cryptate emission wavelength) and 665 nm (d2 emission wavelength). A ratio is calculated (665/590 nm) for each well.
The figures show percentage fluorescence as a function of Log C (log of compound concentration in μM).

MDCK-MDR1 cells = test system: MDCK-MDR1 cells
Description: MDR1 is the nomenclature for the major efflux transporter P-glycoprotein (P-gp), which is expressed at important anatomical barriers such as blood-brain, small intestine, and tumor cells. The MDCK-MDR model is a polarized cell model over expressing P-gp (i.e. P-gp is expressed on the Apical, or gut lumen, side of the cell) that is capable of actively effluxing small molecule substrates in the B to A direction. […] The compounds were run bidirectionally (Compound added to apical side and flux measured of compound appearing on the basolateral, or blood, side; compound added on basolateral side and flux of compound to apical side measured).

[8] = hepatic clearance from CLint by well-stirred equation

IC50 [1]: > 5 µM | logD ([2]; measured partition coefficient at pH 7.4): 0.8 | logP ([2]; measured partition coefficient at pH 11, read-out: MlogP11): 1 | Clearance in hepatocytes (in words) [3]: relatively low clearance | Stability in hepatocytes (in words) [3]: good stability | % Qh (human) (human hepatocytes; CLh as % of hepatic blood flow): 79.8% | hu CLh (human hepatocytes; [8]): 16.8 mL/min/kg | CLint scaled [4]: 83 mL/min/kg | solubility kinetic [5]: 14 to 55 µg/mL (≈ 51.2 to 201 µM) | % Qh (rat) (rat hepatocytes; CLh as % of hepatic blood flow): 49.1% | rat CLh (rat hepatocytes; [8]): 27.0 mL/min/kg | CLint scaled [6]: 53 mL/min/kg | Concentration of compound in DMSO stock solution [7]: 20000 µM | AC50 (SIRT1): 10 µM | Cell permeability (in words) (MDCK-MDR1 cells): moderate cell permeability | P-gp mediated efflux (in words) (MDCK-MDR1 cells): no P-gp mediated efflux
SMILES: NC(=O)c1ccc(C(=O)Nc2ccc(O)cc2O)nc1 [Compound 3, 2-N(2,4-dihydroxyphenyl)pyridine-2,5-dicarboxamide]
